This note sets out measurements from publication PMC9253027, “Methyl probes in proteins for determining ligand binding mode in weak protein–ligand complexes” (Scientific Reports, 2022).

This test deals with T1, EcDsbA (DsbA, oxidized) (Escherichia coli, UniProt P0AEG4).
T1 construct: 21 kDa oxidized EcDsbA
The experiment in a line: X-ray crystal structure ([…] Å, soaking), intermolecular NOEs/NMR2, KD from HSQC chemical shift perturbation titration. Format: binding.

A word on the Kd: it is a measure of binding affinity in units of concentration.

T1 sequence (P0AEG4 20-208): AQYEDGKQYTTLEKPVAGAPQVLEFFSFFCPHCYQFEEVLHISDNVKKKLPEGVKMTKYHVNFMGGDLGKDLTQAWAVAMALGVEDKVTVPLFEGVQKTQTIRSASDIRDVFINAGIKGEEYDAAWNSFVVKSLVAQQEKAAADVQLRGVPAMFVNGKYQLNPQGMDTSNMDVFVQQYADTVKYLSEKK

Turning to `O=C(O)c1sc(CCCc2ccccc2)nc1-c1ccccc1` [compound 1, phenylthiazole 1], the Kd is roughly 900 µM.
